Source: ChEMBL document CHEMBL3734710 (Eur J Med Chem, 2015)

Columns and labels:
in vivo [1] = conditions: rat, iv
in vivo [2] = conditions: rat, po, 10 mg/kg
in vivo [3] = conditions: rat, po, 10 mg/kg; remark: listed apart in the source
in vivo [4] = conditions: rat, iv; remark: listed apart in the source
in vivo [5] = conditions: rat, iv; remark: listed apart in the source
in vivo [6] = conditions: rat, po, 10 mg/kg; remark: listed apart in the source
in vivo [7] = conditions: rat, po, 10 mg/kg; remark: listed apart in the source
in vivo [8] = conditions: rat, iv, 5 mg/kg
in vivo [9] = conditions: rat, iv, 5 mg/kg; remark: listed apart in the source
in vivo [10] = conditions: rat, iv, 5 mg/kg; remark: listed apart in the source

| Vd (in vivo [1]) [L/kg] | AUC(0-inf) (in vivo [2]) [ng·h/mL] | Tmax (in vivo [3]) [h] | clearance (in vivo [4]) [mL/min/kg] | half-life (in vivo [5]) [h] | Cmax (in vivo [6]) [ng/mL] | bioavailability (in vivo [7]) [%] | half-life (in vivo [8]) [h] | clearance (in vivo [9]) [mL/min/kg] | Vd (in vivo [10]) [L/kg] | Compound |
| --- | --- | --- | --- | --- | --- | --- | --- | --- | --- | --- |
| 1.17 | 1350 | 3.3 | 10.8 | 3.77 | 218 | 7.1 |  |  |  | CCc1cc2c(cc1-c1cnn(CC(=O)N(C)C)c1)C(C)(C)c1[nH]c3cc(C#N)ccc3c1C2=O |
|  | 7290 | 4.5 |  |  | 351 | 67.1 | 15.8 | 14.2 | 17.4 | CC1(C)c2cc(C3CCN(CC4CCOCC4)CC3)ccc2C(=O)c2c1[nH]c1cc(C#N)ccc21 |
|  | 1940 | 3.3 |  |  | 192 | 42.4 | 5.41 | 38 | 12.9 | CC1(C)c2cc(C3CCN(CC4(O)CCOCC4)CC3)ccc2C(=O)c2c1[nH]c1cc(C#N)ccc21 |
